Test results as given in US20110020849A1, “BIOMARKERS FOR DIAGNOSTIC AND THERAPEUTIC METHODS” (Wayne State University, priority 2007, published 2011).

Experiments:
rabbit RBCs = experiment: Deformation-induced ATP release from rabbit RBCs pumped through microbore tubing (luciferin/luciferase chemiluminescence); assay type: cell-based
Method: (§1) Preparation of RBCs. Rabbits (New Zealand whites, males, 2.0-2.5 kg) were anesthetized with ketamine ([…], i.m.) and xylazine (1 mg/kg, i.m.) followed by pentobarbital sodium (15 mg/kg i.v.). A cannula was placed in the trachea and the animals were ventilated with room air. A catheter was placed into a carotid artery for administration of heparin and for phlebotomy. After heparin (500 units, i.v.), the animals were exsanguinated. Human blood was obtained by venipuncture without the use of a tourniquet (antecubital fossa) and collected into a heparinized syringe. Blood was centrifuged at 500×g at 4° C. for 10 min. The plasma and buffy coat were discarded. The RBCs were resuspended and washed three times in a physiological salt solution [PSS, containing in mM: 4.7 KCl, 2.0 CaCl2, 140.5 NaCl […], 21.0 tris(hydroxymethyl)aminomethane, 11.1 dextrose with 5% bovine serum albumin (final pH 7.4)]. Cells were prepared on the day of use and experiments were finished within 8 hours of removal from the animal or human subjects. All procedures were approved by the Animal Investigation Committee or the Human Investigation Committee at Wayne State University.
(§2) Measurement of ATP. Human C-peptide (American Peptide Co., Sunnyvale, Calif.), 0.25 mg (MW=3020 g/mol), was dissolved in […] of purified water (18.2 megaohm) to yield a concentration of 83 μM. […] The resulting chemluminescence reaction flowed through a final potion of fused-silica microbore tubing that was placed over a photomultiplier tube, where the emission was detected. The resultant current was measured as a potential by a data acquisition board operated by a program written with the LabView software package (National Instruments, Austin, Tex.).
Introduction. […] Upon deformation in the tubing, the RBCs release ATP that is measured using a well-established chemiluminescence assay for ATP. The concentrations of RBC-derived ATP are measured in the presence and absence of synthetic C-peptide.
C-Peptide-Induced Release of ATP. RBCs obtained from rabbits are pumped through microbore tubing having an inside diameter of 50 μm and the resultant ATP released by the cells upon deformation in the tubing is measured. […] Another aliquot from the same RBC sample is incubated in 1 nM C-peptide and the resultant ATP release measured every 2 h for a period up to 6 h. […] As shown, the ATP release (determined by a chemiluminescence assay) from those cells incubated in the c-peptide increased approximately 2.9 times over a period of […]. […] If cell lysis were occurring, the glybenclamide would have no affect on the measured ATP as it would be present in extracellular form whether or not glybenclamide was introduced to the RBCs. […]

[1] = Electrospray ionization mass spectrometry of C-peptide and metal adducts in aqueous solution; details: ESI-MS
Method: Mass Spectrometric Analysis of Metal-Peptide Binding.
Specifically, the mass spectrum shown in FIG. 3a is that of peptide prepared in water and analyzed within 0.5 h of preparation. In 3a, the [M+3H]^3+ peak is present as are other forms of the peptide with sodium atoms, potassium atoms, or a combination thereof.

RBCs [2] = experiment: Loss of ATP-release bioactivity of C-peptide preparation in water (repeats of Experiments 1 and 2); assay type: cell-based
RBCs [3] = experiment: Cell lysis control: RBC solutions measured under non-flow conditions with a luminometer; assay type: cell-based; details: 200 μL RBC solution and 200 μL luciferin/luciferase solution
Method: To ensure that the resulting increase in ATP release was due to C-peptide interacting with the RBCs and not cell lyses, the RBC solutions were measured under non-flow conditions using a luminometer with 200 μL of the RBC solution and 200 μL of the luciferin/luciferase solution. […] To ensure that lysis was not occurring in the tubing, a solution of 0.01 M glybenclamide was prepared by adding 49 mg of glybenclamide (Sigma) to 2 mL of a 0.1 M solution of sodium hydroxide. To this, 7.94 mL of a dextrose solution (1 g dextrose in 20 mL of purified water) was added. The mixture was heated carefully to 52° C. until all of the glybenclamide was dissolved. Once the solute was completely dissolved, 1 mL of this solution was added to 9 mL of PSS, resulting in a solution with a concentration 0.001 M. From this diluted solution, 2.5 mL were added to 2.5 mL of 7% hematocrit RBC solution, resulting in a 3.5% hematocrit solution of RBCs. This solution was allowed to incubate for 15 minutes. As a comparison, 2.5 mL of wash buffer without glybenclamide was added to 2.5 mL of 7% hematocrit RBCs. After 15 minutes, the RBC solutions were assayed.

diabetic human RBCs = experiment: ATP release from RBCs of patients with type II diabetes; assay type: cell-based; details: n=7; for ATP release: diabetic human RBCs, ±SEM, FIG. 2
Method: as §1
as §2, with “μM. Next, an appropriate volume of this C-peptide solution was added to 10 mL of a 7% solution of RBCs to create a solution containing the C-peptide at concentrations in the 1-5 nM range.” for “μM.”, “Tex.). […]” for “Tex.).”

effect on the C-peptide-induced increase in ATP release (rabbit RBCs; RBCs incubated in glybenclamide)	Compound	ability to induce ATP release from deformed RBCs (rabbit RBCs; C-peptide solution kept at 4° C. for >30 days)	increase in ATP release (rabbit RBCs; rabbit RBCs, 1 nM C-peptide, over a period of 8 h, normalized values, FIG. 1)	increase in ATP release versus control (buffer without C-peptide) (rabbit RBCs; rabbit RBCs, 1 nM C-peptide, over the 6 h period)	time in solution without degradation or cleavage [1] [days]	time to loss of bioactivity after preparation in water (RBCs [2]) [h]	luminescence signal under non-flow conditions (cell lysis check) (RBCs [3])	restoration of ATP release levels (diabetic human RBCs; RBCs of patients with type II diabetes, compared with healthy non-diabetic controls)	ATP release (diabetic human RBCs; after 6 hours of incubation with freshly prepared C-peptide preparation) [nM]	ATP release (diabetic human RBCs; at 0 hours, freshly prepared C-peptide preparation) [nM]
can be inhibited	COc1ccc(Cl)cc1C(=O)NCCc1ccc(S(=O)(=O)NC(=O)NC2CCCCC2)cc1 [glybenclamide]									
	C-peptide	no longer has the ability to induce ATP release from deformed RBCs	approximately 2.9 times	nearly three times that of the RBCs incubated with a control	> 30	24 to 36	No detectable signals were obtained	restore these release levels to a value that is statistically equivalent to that of healthy, non-diabetic control patients	256.1 ± 38.7	63.6 ± 12.6
